Reference: paper PMC11148080, “Ru(II)-based complexes containing 2-thiouracil derivatives suppress liver cancer stem cells by targeting NF-κB and Akt/mTOR signaling” (Cell Death Discovery, 2024)
Several values for one entry are separate records, joined by “and”; a condition that tells them apart may be missing. Equal values may be shown once.

Tests used:
Type in all cases: cell-based, human
HL-60 = assay: Alamar Blue cytotoxicity; details: for IC50: HL-60, 72 h
Protocol: The Alamar Blue assay was used to measure cell viability, as previously described. Adherent cells were seeded in 96-well plates at a density of 7 × 10^3 cells per well, and suspended cells were seeded at 3 × 10^4 cells per well. Drugs were added to each well after overnight incubation for adherent cells or immediately after seeding for suspension cells, and incubation continued for an additional 72 h. […] Four hours (for cell lines) or 24 h (for primary cultures) before the end of incubation, 20 μL of resazurin (30 μM) (Sigma‒Aldrich Co. St. Louis, MO, USA) was added to each well. The absorbance at 570 and 600 nm was measured using a SpectraMax 190 microplate reader (Molecular Devices, Sunnyvale, CA, USA).

A-375 = assay: Alamar Blue cytotoxicity; details: for IC50: A-375, 72 h
Protocol: (§1) The Alamar Blue assay was used to measure cell viability, as previously described. Adherent cells were seeded in 96-well plates at a density of 7 × 10^3 cells per well, and suspended cells were seeded at 3 × 10^4 cells per well. Drugs were added to each well after overnight incubation for adherent cells or immediately after seeding for suspension cells, and incubation continued for an additional 72 h. The positive control included doxorubicin (Laboratorio IMA S.A.I.C., Buenos Aires, Argentina). Four hours (for cell lines) or 24 h (for primary cultures) before the end of incubation, 20 μL of resazurin (30 μM) (Sigma‒Aldrich Co. St. Louis, MO, USA) was added to each well. The absorbance at 570 and 600 nm was measured using a SpectraMax 190 microplate reader (Molecular Devices, Sunnyvale, CA, USA).

A549 = assay: Alamar Blue cytotoxicity
Protocol: as §1

CAL 27 = assay: Alamar Blue cytotoxicity; details: for IC50: CAL 27, 72 h
Protocol: as §1

DU 145 = assay: Alamar Blue cytotoxicity; details: for IC50: DU 145, 72 h
Protocol: as §1

HCT116 = assay: Alamar Blue cytotoxicity; details: for IC50: HCT116, 72 h
Protocol: as §1

HSC-3 = assay: Alamar Blue cytotoxicity; details: for IC50: HSC-3, 72 h
Protocol: as §1

HepG2 = assay: Alamar Blue cytotoxicity; details: for IC50: HepG2, 72 h
Protocol: as §1

Jurkat = assay: Alamar Blue cytotoxicity; details: for IC50: Jurkat, 72 h
Protocol: as §1

K-562 = assay: Alamar Blue cytotoxicity; details: for IC50: K-562, 72 h
Protocol: as §1

KG-1a = assay: Alamar Blue cytotoxicity; details: for IC50: KG-1a, 72 h
Protocol: as §1

MCF-7 = assay: Alamar Blue cytotoxicity; details: for IC50: MCF-7, 72 h
Protocol: as §1

MDA-MB-231 = assay: Alamar Blue cytotoxicity; details: for IC50: MDA-MB-231, 72 h
Protocol: as §1

NB4 = assay: Alamar Blue cytotoxicity; details: for IC50: NB4, 72 h
Protocol: as §1

OVCAR-3 = assay: Alamar Blue cytotoxicity; details: for IC50: OVCAR-3, 72 h
Protocol: as §1

PANC-1 = assay: Alamar Blue cytotoxicity; details: for IC50: PANC-1, 72 h
Protocol: as §1

SCC-25 = assay: Alamar Blue cytotoxicity; details: for IC50: SCC-25, 72 h
Protocol: as §1

SCC-9 = assay: Alamar Blue cytotoxicity; details: for IC50: SCC-9, 72 h
Protocol: as §1

SCC4 = assay: Alamar Blue cytotoxicity; details: for IC50: SCC4, 72 h
Protocol: as §1

THP-1 = assay: Alamar Blue cytotoxicity; details: for IC50: THP-1, 72 h
Protocol: as §1

U-87 MG = assay: Alamar Blue cytotoxicity; details: for IC50: U-87 MG, 72 h
Protocol: as §1

BJ = assay: Alamar Blue cytotoxicity, noncancerous cells; details: 72 h
Protocol: as §1

MRC-5 = assay: Alamar Blue cytotoxicity, noncancerous cells; details: MRC-5, 72 h
Protocol: as §1

HepG2 cells = assay: DNA content assay (internucleosomal DNA fragmentation, cell cycle); details: for DNA fragmentation (sub-G0/G1): HepG2, 72 h, control 5.6%
Protocol: Internucleosomal DNA fragmentation and cell cycle distribution were determined by a DNA content assay. The cells were stained with PI using a solution containing 0.1% Triton X-100, 2 µg/mL PI, 0.1% sodium citrate, and 100 μg/mL RNAse (all from Sigma‒Aldrich) and incubated in the dark for 15 min at room temperature. For all flow cytometry analyses, cellular fluorescence was measured using a BD LSRFortessa cytometer, BD FACSDiva software (BD Biosciences) and FlowJo software 10 (FlowJo LLC; Ashland, OR, USA). A minimum of 10,000 events were obtained per sample for intracellular staining, and a minimum of 30,000 events per sample were acquired for cell surface protein staining. Doublets were removed using FSC-A vs FCS-H and SCC-A vs SCC-H. Cellular debris was excluded from the analysis.

COc1cccc2c1C(=O)c1c(O)c3c(c(O)c1C2=O)C[C@@](O)(C(=O)CO)C[C@@H]3O[C@H]1C[C@H](N)[C@H](O)[C@H](C)O1 [Doxorubicin]
IC50 (HL-60; Homo sapiens): 350 nM
Selectivity index (HL-60; IC50 BJ/IC50 HL-60): 5.29
Selectivity index (HL-60; IC50 MRC-5/IC50 HL-60): 4.86
IC50 (A-375; Homo sapiens): 160 nM
Selectivity index (A-375; IC50 BJ/IC50 A-375): 11.56
Selectivity index (A-375; IC50 MRC-5/IC50 A-375): 10.63
Selectivity index (A-375; IC50 PBMC/IC50 A-375): 8.31
Selectivity index (A549; IC50 BJ/IC50 A549): 0.79
Selectivity index (A549; IC50 MRC-5/IC50 A549): 0.72
Selectivity index (A549; IC50 PBMC/IC50 A549): 0.57
IC50 (CAL 27; Homo sapiens): 110 nM
Selectivity index (CAL 27; IC50 BJ/IC50 CAL 27): 16.82
Selectivity index (CAL 27; IC50 MRC-5/IC50 CAL 27): 15.45
Selectivity index (CAL 27; IC50 PBMC/IC50 CAL 27): 12.09
IC50 (DU 145; Homo sapiens): 240 nM
Selectivity index (DU 145; IC50 BJ/IC50 DU 145): 7.71
Selectivity index (DU 145; IC50 MRC-5/IC50 DU 145): 7.08
Selectivity index (DU 145; IC50 PBMC/IC50 DU 145): 5.54
IC50 (HCT116; Homo sapiens, HCT-116): 860 nM
Selectivity index (HCT116; IC50 BJ/IC50 HCT116): 2.15
Selectivity index (HCT116; IC50 MRC-5/IC50 HCT116): 1.98
Selectivity index (HCT116; IC50 PBMC/IC50 HCT116): 1.55
IC50 (HSC-3; Homo sapiens): 690 nM
Selectivity index (HSC-3; IC50 BJ/IC50 HSC-3): 2.68
Selectivity index (HSC-3; IC50 MRC-5/IC50 HSC-3): 2.46
Selectivity index (HSC-3; IC50 PBMC/IC50 HSC-3): 1.93
IC50 (HepG2; Homo sapiens): 320 nM
Selectivity index (HepG2; IC50 BJ/IC50 HepG2): 5.78
Selectivity index (HepG2; IC50 MRC-5/IC50 HepG2): 5.31
Selectivity index (HepG2; IC50 PBMC/IC50 HepG2): 4.16
IC50 (Jurkat; Homo sapiens): 60 nM
Selectivity index (Jurkat; IC50 BJ/IC50 Jurkat): 30.83
Selectivity index (Jurkat; IC50 MRC-5/IC50 Jurkat): 28.33
Selectivity index (Jurkat; IC50 PBMC/IC50 Jurkat): 22.17
IC50 (K-562; Homo sapiens, K562): 1650 nM
Selectivity index (K-562; IC50 BJ/IC50 K-562): 1.12
Selectivity index (K-562; IC50 MRC-5/IC50 K-562): 1.03
Selectivity index (K-562; IC50 PBMC/IC50 K-562): 0.81
IC50 (KG-1a; Homo sapiens): 70 nM
Selectivity index (KG-1a; IC50 BJ/IC50 KG-1a): 26.43
Selectivity index (KG-1a; IC50 MRC-5/IC50 KG-1a): 24.29
Selectivity index (KG-1a; IC50 PBMC/IC50 KG-1a): 19.00
IC50 (MCF-7; Homo sapiens, MCF7): 2280 nM
Selectivity index (MCF-7; IC50 BJ/IC50 MCF-7): 0.81
Selectivity index (MCF-7; IC50 MRC-5/IC50 MCF-7): 0.75
Selectivity index (MCF-7; IC50 PBMC/IC50 MCF-7): 0.58
IC50 (MDA-MB-231; Homo sapiens): 430 nM
Selectivity index (MDA-MB-231; IC50 BJ/IC50 MDA-MB-231): 4.30
Selectivity index (MDA-MB-231; IC50 MRC-5/IC50 MDA-MB-231): 3.95
Selectivity index (MDA-MB-231; IC50 PBMC/IC50 MDA-MB-231): 3.09
IC50 (NB4; Homo sapiens, NB-4): 90 nM
Selectivity index (NB4; IC50 BJ/IC50 NB4): 20.56
Selectivity index (NB4; IC50 MRC-5/IC50 NB4): 18.89
Selectivity index (NB4; IC50 PBMC/IC50 NB4): 14.78
IC50 (OVCAR-3; Homo sapiens): 1060 nM
Selectivity index (OVCAR-3; IC50 BJ/IC50 OVCAR-3): 1.75
Selectivity index (OVCAR-3; IC50 MRC-5/IC50 OVCAR-3): 1.60
Selectivity index (OVCAR-3; IC50 PBMC/IC50 OVCAR-3): 1.25
IC50 (PANC-1; Homo sapiens): 1110 nM
Selectivity index (PANC-1; IC50 BJ/IC50 PANC-1): 1.67
Selectivity index (PANC-1; IC50 MRC-5/IC50 PANC-1): 1.53
Selectivity index (PANC-1; IC50 PBMC/IC50 PANC-1): 1.20
IC50 (SCC-25; Homo sapiens): 1440 nM
Selectivity index (SCC-25; IC50 BJ/IC50 SCC-25): 1.28
Selectivity index (SCC-25; IC50 MRC-5/IC50 SCC-25): 1.18
Selectivity index (SCC-25; IC50 PBMC/IC50 SCC-25): 0.92
IC50 (SCC-9; Homo sapiens): 1000 nM
Selectivity index (SCC-9; IC50 BJ/IC50 SCC-9): 1.85
Selectivity index (SCC-9; IC50 MRC-5/IC50 SCC-9): 1.70
Selectivity index (SCC-9; IC50 PBMC/IC50 SCC-9): 1.33
IC50 (SCC4; Homo sapiens, SCC-4): 1800 nM
Selectivity index (SCC4; IC50 BJ/IC50 SCC4): 1.03
Selectivity index (SCC4; IC50 MRC-5/IC50 SCC4): 0.94
Selectivity index (SCC4; IC50 PBMC/IC50 SCC4): 0.74
IC50 (THP-1; Homo sapiens): 140 nM
Selectivity index (THP-1; IC50 BJ/IC50 THP-1): 13.21
Selectivity index (THP-1; IC50 MRC-5/IC50 THP-1): 12.14
Selectivity index (THP-1; IC50 PBMC/IC50 THP-1): 9.50
IC50 (U-87 MG; Homo sapiens): 520 nM
Selectivity index (U-87 MG; IC50 BJ/IC50 U-87 MG): 3.56
Selectivity index (U-87 MG; IC50 MRC-5/IC50 U-87 MG): 3.27
Selectivity index (U-87 MG; IC50 PBMC/IC50 U-87 MG): 2.56
IC50 (BJ; Homo sapiens): 1850 nM
IC50 (MRC-5; Homo sapiens, MRC5): 1700 nM
DNA fragmentation (HepG2 cells; HepG2, DOX 1 μM, positive control): also caused DNA fragmentation

F[P-](F)(F)(F)(F)F.O=c1cc[nH]c([S][Ru+])n1.c1ccc(-c2ccccn2)nc1.c1ccc(P(c2ccccc2)c2ccccc2)cc1.c1ccc(P(c2ccccc2)c2ccccc2)cc1 [Complex 1, trans-[Ru(2TU)(PPh3)2(bipy)]PF6]
IC50 (HL-60): 5710 nM
IC50 (A-375): 3010 nM
IC50 (A549; A549, 72 h): 17500 nM
IC50 (CAL 27): 2660 nM
IC50 (DU 145): 7600 nM
IC50 (HCT116): 4740 nM
IC50 (HSC-3): 8360 nM
IC50 (HepG2): 3490 nM
IC50 (Jurkat): 5070 nM
IC50 (K-562): 6770 nM
IC50 (KG-1a): 4770 nM
IC50 (MCF-7): 9210 nM
IC50 (MDA-MB-231): 2620 nM
IC50 (NB4): 4790 nM
IC50 (OVCAR-3): 2400 nM and 2430 nM
IC50 (PANC-1): 9450 nM
IC50 (SCC-25): 7610 nM
IC50 (SCC-9): 4400 nM
IC50 (SCC4): 4770 nM
IC50 (THP-1): 4750 nM
IC50 (U-87 MG): 3530 nM
IC50 (BJ): 7000 nM
IC50 (MRC-5): 17700 nM
DNA fragmentation (sub-G0/G1) (HepG2 cells; 2 µM): 12.3%
DNA fragmentation (sub-G0/G1) (HepG2 cells; 4 µM): 26.7%
DNA fragmentation (sub-G0/G1) (HepG2 cells; 8 µM): 43.1%
